Measured values as given in ChEMBL document CHEMBL1221263, “Preliminary studies of 3,4-dichloroaniline amides as antiparasitic agents: structure-activity analysis of a compound library in vitro against Trichomonas vaginalis” (Bioorg Med Chem Lett, 2010).

Experiments:
Trichomonas vaginalis [1] = test: Antiparasitic activity against Trichomonas vaginalis T1 at 100 uM after 24 hrs by hemocytometric analysis; format: functional; details: T1, 24 h
Trichomonas vaginalis [2] = test: Antiparasitic activity against Trichomonas vaginalis G3 at 100 uM after 24 hrs by hemocytometric analysis; format: functional; details: G3, 24 h
Trichomonas vaginalis [3] = test: Antiparasitic activity against Trichomonas vaginalis T1 after 24 hrs by hemocytometric analysis; format: functional, organism-based; details: T1, 24 h
Trichomonas vaginalis [4] = test: Antiparasitic activity against Trichomonas vaginalis G3 after 24 hrs by hemocytometric analysis; format: functional; details: G3, 24 h
[5] = Cytotoxicity against human CFU-GM cells; format: cell-based
[6] = Cytotoxicity against human erythroid progenitor cells; format: cell-based

SMILES	inhibition at 100 µM (Trichomonas vaginalis [1])	inhibition at 100 µM (Trichomonas vaginalis [2])	IC50 (Trichomonas vaginalis [3])	IC50 (Trichomonas vaginalis [4])	IC50 [5]	IC50 [6]
O=Cc1ccc(-c2ccc(Cl)cc2[N+](=O)[O-])o1	59%	46%				
O=C1C=CC(=O)c2c(O)cccc21 [JUGLONE]	39%	49%				
O=C(Nc1ccc(Cl)c(Cl)c1)C1CCCCC1	62%	30%				
O=C1C(Cl)=C(Cl)C(=O)C(Cl)=C1Cl [CHLORANIL]	12%	40%				
O=C(Nc1ccc(Cl)c(Cl)c1)c1cccc(C(F)(F)F)c1	69%	66%	77 µM	90 µM		
O=C(Nc1ccc(Cl)c(Cl)c1)c1cccc(F)c1	29%	61%				
O=C(Nc1ccc(Cl)c(Cl)c1)c1ccc(Cl)cc1	46%	28%				
COc1ccc(C(=O)Nc2ccc(Cl)c(Cl)c2)cc1	22%	13%				
O=C(Nc1ccc(O)cc1)C1CCCCC1	25%	39%				
COc1ccc(NC(=O)C2CCCCC2)cc1OC	34%	10%				
COc1ccc(-c2ccccc2)cc1NC(=O)C1CCCCC1	36%	28%				
O=C(Nc1ccc(Cl)c(Cl)c1)C12CC3CC(CC(C3)C1)C2	0%	19%				
CCC(=O)Nc1ccc(Cl)c(Cl)c1 [PROPANIL]	29%	20%	120 µM		> 500 µM	305 µM
O=C(Nc1ccc(Cl)c(Cl)c1)c1ccc([N+](=O)[O-])cc1	44%	40%				
CC(=O)Nc1ccc(O)cc1 [ACETAMINOPHEN]	17%	14%				
O=C(Nc1ccc(Cl)c(Cl)c1)c1cccc([N+](=O)[O-])c1	22%	51%				
O=C(Nc1ccc(Cl)c(Cl)c1)c1ccc(Cl)cc1Cl	38%	46%				
O=C(Nc1ccc(Cl)c(Cl)c1)c1cccc2ccccc12	49%	37%				
Cc1ncc([N+](=O)[O-])n1CCO [METRONIDAZOLE]			0.72 µM	0.77 µM		
O=C(Nc1ccc(Cl)c(Cl)c1)c1ccc(-c2ccccc2)cc1	64%	24%				
O=C(Nc1ccc(Cl)c(Cl)c1)c1ccc(Cl)c(Cl)c1	29%	55%				
O=C(Nc1ccc(Cl)c(Cl)c1)c1cccc(Cl)c1	19%	70%				
